The assay deals with HEK293 cells, ROS production inhibition counter-screen. Description: ROS production inhibition in HEK293 cells, late-stage follow-up, counter-screen for NOX1 inhibitor project, cell-based, IC50, set 2 (AID 435002).

Molecules are shown by their SMILES.

In the case of `Cc1cc(Cl)ccc1NC(=S)NNC(=S)Nc1ccc(F)cc1`, the IC50 was 0.96 µM.

As for `CN(C)c1ccc(NC(=O)Nc2ccc(OCc3ccccc3)cc2)cc1`, the IC50 is 2.37 µM.

Take `COc1cc(-c2nc(-c3ccccc3)c(-c3ccccc3)[nH]2)ccc1O`: the IC50 is 1.81 µM.

`FC(F)(F)c1ccc2c(c1)Nc1ccccc1S2`: the IC50 is 1 µM.

The values above are taken from PubChem BioAssay AID435002 (The Scripps Research Institute Molecular Screening Center, 2010).
